Data on ten molecules can be found in PubChem BioAssay (NCI).

Values joined by “and” are separate entries in the source; they are usually repeats but may differ in a detail not shown here. Identical values can stand only once.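 Cultured in 96-well plates, cells were exposed to test compound for 48 hours across five concentrations. Abbreviation: GI50, concentration required for 50% inhibition of growth. The concentration for full growth arrest is given as TGI.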

Some test systems named below: LOX IMVI melanoma; TK-10 renal; M14 melanoma; UACC-62 melanoma; NCI-H226 lung; RPMI-8226 leukemia; OVCAR-8 ovarian.
Holding throughout (experiment): inhibition of tumour cell growth, NCI panel, 48 h

As to `O=C(c1ccccc1)C(CN1CCOCC1)c1ccccc1` (stereo not given), the GI50 is 1.32 µM in the assay on LOX IMVI melanoma; 1.19 µM in the assay on TK-10 renal; 1.66 µM in the assay on M14 melanoma; 1.71 µM in the assay on UACC-62 melanoma; 2.79 µM in the assay on NCI-H226 lung; 0.793 µM in the assay on RPMI-8226 leukemia. Also, the GI50 in the assay on OVCAR-8 ovarian was 1.52 µM. For the same molecule, the TGI was determined as 3.19 µM with LOX IMVI melanoma; 2.44 µM in the assay with TK-10 renal; 3.57 µM in the assay with M14 melanoma; 4.21 µM in the assay with UACC-62 melanoma; 9.33 µM with NCI-H226 lung; 4.74 µM with RPMI-8226 leukemia. Besides, the TGI with OVCAR-8 ovarian was found to be 3.22 µM.

With `O=S(=O)(NCCNC/C=C/c1ccc(Br)cc1)c1cccc2cnccc12`, the GI50 in the assay on LOX IMVI melanoma was 7.64 µM and 12.1 µM; with TK-10 renal it was 5.92 µM and 10.3 µM; in the assay with M14 melanoma, 12.8 µM and 15.3 µM; in the assay with UACC-62 melanoma, 9.35 µM and 14.5 µM; with NCI-H226 lung, 12.3 µM and 13.7 µM; with RPMI-8226 leukemia, 5.2 µM and 12 µM. Further, in the assay with OVCAR-8 ovarian, the GI50 is 13 µM and 15.6 µM. Besides, the TGI is 25.6 µM and 25.2 µM in the assay with LOX IMVI melanoma; 19.6 µM and 23 µM in the assay on TK-10 renal; 26.4 µM and 30.9 µM in the assay on M14 melanoma; 22.2 µM and 30.2 µM with UACC-62 melanoma; 30.7 µM and 34.5 µM in the assay on NCI-H226 lung; 25.3 µM and 35.2 µM in the assay on RPMI-8226 leukemia. Also, in the assay on OVCAR-8 ovarian, the TGI was 28.5 µM and 32.3 µM.

As for `CC1=C(CCC(C)N(C)Cc2ccc(OCCCN3CCCC3)cc2)C(C)(C)CCC1` (stereo not given), the GI50 is 1.66 µM with LOX IMVI melanoma; 12.5 µM with TK-10 renal; 1.75 µM with M14 melanoma; 2.11 µM with UACC-62 melanoma; 18.8 µM with NCI-H226 lung; 2.9 µM with RPMI-8226 leukemia. Moreover, in the assay on OVCAR-8 ovarian, the GI50 was 5.75 µM. The TGI was found to be 3.18 µM in the assay with LOX IMVI melanoma; 26.7 µM in the assay on TK-10 renal; 3.7 µM with M14 melanoma; 4.17 µM in the assay with UACC-62 melanoma; 37.3 µM in the assay on NCI-H226 lung; 8.65 µM in the assay with RPMI-8226 leukemia. In the assay on OVCAR-8 ovarian, this molecule returned a TGI of 19.9 µM.

Regarding `Cc1ccc(C2=NOC3=c4ccccc4=CSC3=C2c2ccc([N+](=O)[O-])cc2)cc1`, the GI50 in the assay on LOX IMVI melanoma is 16.2 µM; with TK-10 renal, 13 µM; with M14 melanoma, 18.6 µM; in the assay on UACC-62 melanoma, 14.5 µM; in the assay on NCI-H226 lung it was 14 µM; in the assay with RPMI-8226 leukemia it was 44.4 µM. Further, the GI50 with OVCAR-8 ovarian is 6.22 µM. The TGI in the assay on LOX IMVI melanoma was 53.8 µM; with TK-10 renal, 40.3 µM; with M14 melanoma, over 100 µM; with UACC-62 melanoma, 31.3 µM; in the assay on NCI-H226 lung, 34 µM; in the assay with RPMI-8226 leukemia it was over 100 µM. The same molecule displayed a TGI in the assay on OVCAR-8 ovarian of 40.5 µM.

As to `N/C(=N\N=C\c1ccc(-c2ccccc2)cc1)N[N+](=O)[O-]`, the GI50 was 5.75 µM in the assay with LOX IMVI melanoma; over 100 µM in the assay on TK-10 renal; 1.65 µM with M14 melanoma; 0.771 µM in the assay on UACC-62 melanoma; over 28.1 µM in the assay with NCI-H226 lung; 4.04 µM in the assay on RPMI-8226 leukemia. In addition, the GI50 in the assay with OVCAR-8 ovarian is 5.61 µM. Moreover, the TGI with LOX IMVI melanoma, in the assay on TK-10 renal, in the assay with M14 melanoma, with UACC-62 melanoma, in the assay with NCI-H226 lung and with RPMI-8226 leukemia was over 100 µM each time. The TGI with OVCAR-8 ovarian is over 100 µM.

On to `C[C@]12CC[C@H]3[C@@H](CCC4=CC(=O)CC[C@@H]43)[C@@H]1CC[C@@H]2OC(=O)CCc1ccccc1`, for which the GI50 with LOX IMVI melanoma was 15.6 µM; with TK-10 renal, 14.5 µM; in the assay on M14 melanoma, 21.2 µM; in the assay with UACC-62 melanoma, 9.64 µM; in the assay on NCI-H226 lung, 16.5 µM; in the assay with RPMI-8226 leukemia, 14.6 µM. The GI50 in the assay with OVCAR-8 ovarian was 21.5 µM. Besides, the TGI in the assay with LOX IMVI melanoma was 29.1 µM; in the assay on TK-10 renal, 33.7 µM; with M14 melanoma it was 46.4 µM; in the assay on UACC-62 melanoma, 35.7 µM; in the assay with NCI-H226 lung, 34 µM; with RPMI-8226 leukemia, 47 µM. This molecule displayed a TGI in the assay on OVCAR-8 ovarian of 49.3 µM.

Take `CC(CN1CCN(CCOCCO)CC1)CN1c2ccccc2Sc2ccc(Cl)cc21` (stereo not given): the GI50 with LOX IMVI melanoma was 1.74 µM; in the assay with TK-10 renal it was 2.31 µM; in the assay on M14 melanoma it was 1.85 µM; with UACC-62 melanoma, 1.75 µM; with NCI-H226 lung it was 11.5 µM; with RPMI-8226 leukemia, 2.19 µM. Moreover, in the assay with OVCAR-8 ovarian, the GI50 was 4.99 µM. The TGI in the assay on LOX IMVI melanoma came out at 3.27 µM; in the assay on TK-10 renal, 6.45 µM; with M14 melanoma, 3.46 µM; in the assay on UACC-62 melanoma, 3.44 µM; in the assay on NCI-H226 lung, 36.8 µM; in the assay with RPMI-8226 leukemia, 5.54 µM. In the assay on OVCAR-8 ovarian, this molecule displayed a TGI of 18.9 µM.

For the molecule `O[C@H]1CO[C@H]2[C@@H]1OC[C@@H]2Oc1ccc(Nc2ccnc(Nc3ccc(O[C@H]4CO[C@H]5[C@@H]4OC[C@@H]5O)c(Cl)c3)n2)cc1Cl`, the GI50 in the assay on LOX IMVI melanoma was 1.26 µM; with TK-10 renal, 2.14 µM; in the assay with M14 melanoma it was 1.48 µM; in the assay with UACC-62 melanoma, 1.11 µM; in the assay with NCI-H226 lung it was 1.48 µM; in the assay with RPMI-8226 leukemia, 1.05 µM. In addition, in the assay on OVCAR-8 ovarian, the GI50 was 1.38 µM. Besides, the TGI with LOX IMVI melanoma is 3.18 µM; with TK-10 renal, 10.5 µM; with M14 melanoma it was 4.18 µM; with UACC-62 melanoma, 2.75 µM; with NCI-H226 lung, 3.61 µM; with RPMI-8226 leukemia it was 3.24 µM. Moreover, the TGI with OVCAR-8 ovarian was 11.3 µM.

Turning to `CN(C)c1ccc(/C=C\c2cccc[n+]2C)cc1`, the GI50 was 5.31 µM in the assay with LOX IMVI melanoma; 41.1 µM with TK-10 renal; 10.7 µM in the assay with M14 melanoma; 19.8 µM with UACC-62 melanoma; 12.2 µM in the assay with NCI-H226 lung; 4.44 µM in the assay with RPMI-8226 leukemia. Further, the GI50 in the assay with OVCAR-8 ovarian was 4.13 µM. For the same molecule, the TGI was 36.6 µM with LOX IMVI melanoma; over 100 µM in the assay on TK-10 renal; over 100 µM in the assay on M14 melanoma; 58 µM with UACC-62 melanoma; over 100 µM in the assay with NCI-H226 lung; 45.2 µM in the assay with RPMI-8226 leukemia. The same molecule showed a TGI in the assay with OVCAR-8 ovarian of over 100 µM.

As to `C/C(=N\Nc1ccc2ccccc2n1)c1ccccn1`, the GI50 with LOX IMVI melanoma was 0.0627 µM; in the assay on TK-10 renal it was 0.197 µM; in the assay with M14 melanoma it was 0.0504 µM; in the assay with UACC-62 melanoma, 0.104 µM; in the assay on NCI-H226 lung, 0.134 µM; in the assay on RPMI-8226 leukemia, 0.0897 µM. In addition, in the assay on OVCAR-8 ovarian, the GI50 is under 0.0492 µM. Also, the TGI in the assay on LOX IMVI melanoma stood at 1.42 µM; in the assay on TK-10 renal, 16.1 µM; with M14 melanoma, 1.33 µM; with UACC-62 melanoma it was 0.652 µM; in the assay with NCI-H226 lung, 2.12 µM; in the assay on RPMI-8226 leukemia, 2.89 µM. In addition, the TGI in the assay with OVCAR-8 ovarian stood at 12.8 µM.
